The test deals with S1P1/EDG1 (Homo sapiens, UniProt P21453). In words: S1P1 CRE-bla CHOK1 reporter assay, inhibition of Forskolin induced cAMP. The test is classed as cell-based. As to conditions: agonist activity range; S1P1 CRE-bla CHOK1 cells, 2 μM Forskolin; read-out: S1P1 ACTIVITY
As to the method: Generation of S1P1-Mediated Inhibition of cAMP Reporter Assay
A mammalian expression plasmid containing S1P1/EDG1 cloned into pcDNA3.1 was purchased from Missouri S&T cDNA Resource Centre. […] S1P1/pcDNA3.1 was transfected into the CRE-bla CHO K1 (Invitrogen) cell line, and stable single cell clones were selected using standard techniques.
S1P1 CRE-Bla CHOK1 Reporter Assay—Characterization of S1P1 Agonists
Cells were seeded into 384-well black wall/clear bottom plates at 10^4 cells/well/19.5 μl assay media (DMEM-phenol free, 0.5% charcoal/dextran stripped serum, 2 mM glutamine, 0.1 mM NEAA, 1 mM Na-Pyruvate, 25 mM Hepes) and incubated for 18 hrs at 37° C. in 5% CO2. Dose response curves (10-point) were generated in 10 mM Hepes, 0.1% Pluronic F127, in the presence of Forskolin. Cells were treated with 0.5 μl compound in the presence of 2 μM Forskolin for 4 hrs at 37° C. The FRET-based β-lactamase fluorescent substrate (LiveBLAzer™-FRET B/G Loading Kit CC4-AM; Invitrogen) was prepared according to manufacturer's directions, and incubated with cells for 2 hrs at room temperature.

Molecules are shown by their SMILES. Where a name gives a salt, the structure may show the parent alone.

Chain of S1P1/EDG1 (P21453 whole entry): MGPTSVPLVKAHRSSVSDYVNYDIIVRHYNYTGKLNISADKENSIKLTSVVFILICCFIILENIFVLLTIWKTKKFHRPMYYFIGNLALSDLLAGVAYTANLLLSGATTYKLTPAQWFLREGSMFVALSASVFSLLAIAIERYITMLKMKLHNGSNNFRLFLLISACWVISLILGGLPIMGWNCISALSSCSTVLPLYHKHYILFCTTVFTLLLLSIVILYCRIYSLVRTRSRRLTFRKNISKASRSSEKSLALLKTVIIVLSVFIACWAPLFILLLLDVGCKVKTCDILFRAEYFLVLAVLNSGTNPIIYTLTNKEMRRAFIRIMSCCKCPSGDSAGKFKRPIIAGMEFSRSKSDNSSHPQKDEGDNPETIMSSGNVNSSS

Consider `CC(C)Oc1ccc(-c2ncc(-c3cccc4c3CCC[C@H]4N)s2)cc1C#N` [Compound 230, (R)-5-(5-(5-amino-5,6,7,8-tetrahydronaphthalen-1-yl)thiazol-2-yl)-2-isopropoxybenzonitrile hydrochloride], for which the EC50 fell in the range of 0.5 to 5 nM. For the compound `CC(=O)N[C@@H]1CCCc2c(-c3nnc(-c4ccc(OC(C)C)c(C#N)c4)s3)cccc21` [Compound 231, (R)—N-(5-(5-(3-cyano-4-isopropoxyphenyl)-1,3,4-thiadiazol-2-yl)-1,2,3,4-tetrahydronaphthalen-1-yl) acetamide], the EC50 fell in the range of 0.05 to 0.5 nM. For `CC(=O)N[C@H]1CCCc2c(-c3nnc(-c4ccc(OC(C)C)c(C#N)c4)s3)cccc21` [Compound 232, (S)—N-(5-(5-(3-cyano-4-isopropoxyphenyl)-1,3,4-thiadiazol-2-yl)-1,2,3,4-tetrahydronaphthalen-1-yl)acetamide], the EC50 lay within 0.5 to 5 nM. On to `CC(C)Oc1ccc(-c2nnc(-c3cccc4c3CCC[C@H]4NC(=O)c3ccncc3)s2)cc1C#N` [Compound 233], for which the EC50 was in the range of 0.5 to 5 nM. With `CC(C)Oc1ccc(-c2nnc(-c3cccc4c3CCC[C@H]4NC(=O)c3cccnc3)s2)cc1C#N` [Compound 234], the EC50 was 0.5 to 5 nM. For the compound `CC(C)Oc1ccc(-c2nnc(-c3cccc4c3CCC[C@H]4NC(=O)c3ccccn3)s2)cc1C#N` [Compound 235], the EC50 is 0.5 to 5 nM. Take `CC(C)Oc1ccc(-c2nnc(-c3cccc4c3CCC[C@H]4NC(=O)CN(C)C)s2)cc1C#N` [Compound 236]: the EC50 fell in the range of 0.5 to 5 nM. With `COCC(=O)N[C@@H]1CCCc2c(-c3nnc(-c4ccc(OC(C)C)c(C#N)c4)s3)cccc21` [Compound 237], the EC50 fell in the range of 0.05 to 0.5 nM.

On to `CC(C)Oc1ccc(-c2nnc(-c3cccc4c3CCC[C@@H]4NC(=O)CN(C)C)s2)cc1C#N` [Compound 238], for which the EC50 lay in the range of 0.5 to 5 nM.

`COCC(=O)N[C@H]1CCCc2c(-c3nnc(-c4ccc(OC(C)C)c(C#N)c4)s3)cccc21` [Compound 239]: the EC50 lay in the range of 0.5 to 5 nM. As for `COC(=O)N[C@H]1CCCc2c(-c3nnc(-c4ccc(OC(C)C)c(C#N)c4)s3)cccc21` [Compound 240], the EC50 is 0.05 to 0.5 nM.

In the case of `CC(C)Oc1ccc(-c2nnc(-c3cccc4c3CCC[C@@H]4NC(=O)c3ccncc3)s2)cc1C#N` [Compound 241], the EC50 was 0.5 to 5 nM. With `CC(C)Oc1ccc(-c2nnc(-c3cccc4c3CCC[C@@H]4NC(=O)c3cccnc3)s2)cc1C#N` [Compound 242] the figure was 0.5 to 5 nM; with `CC(C)Oc1ccc(-c2nnc(-c3cccc4c3CCC[C@@H]4NC(=O)c3ccccn3)s2)cc1C#N` [Compound 243], over 5 nM. For `COC(=O)N[C@@H]1CCCc2c(-c3nnc(-c4ccc(OC(C)C)c(C#N)c4)s3)cccc21` [Compound 244], the EC50 fell in the range of 0.5 to 5 nM.

With `CC(C)Oc1ccc(-c2nnc(-c3cccc4c3CCC[C@H]4NC(=O)CO)s2)cc1C#N` [Compound 245, (R)—N-(5-(5-(3-cyano-4-isopropoxyphenyl)-1,3,4-thiadiazol-2-yl)-1,2,3,4-tetrahydronaphthalen-1-yl)-2-hydroxyacetamide], the EC50 was 0.05 to 0.5 nM. In the case of `CC(C)Oc1ccc(-c2nnc(-c3cccc4c3CCC[C@@H]4NC(=O)CO)s2)cc1C#N` [Compound 246, (S)—N-(5-(5-(3-cyano-4-isopropoxyphenyl)-1,3,4-thiadiazol-2-yl)-1,2,3,4-tetrahydronaphthalen-1-yl)-2-hydroxyacetamide], the EC50 fell in the range of 0.05 to 0.5 nM. On to `CC(C)Oc1ccc(-c2nnc(-c3cccc4c3CCC[C@H]4NC(=O)[C@H](N)CO)s2)cc1C#N` [Compound 247], for which the EC50 was 0.5 to 5 nM. For `CC(C)Oc1ccc(-c2nnc(-c3cccc4c3CCC[C@H]4NC(=O)[C@@H](N)CO)s2)cc1C#N` [Compound 248], the EC50 is 0.05 to 0.5 nM. For `CC(C)Oc1ccc(-c2nnc(-c3cccc4c3CCC[C@H]4NC(=O)CCN)s2)cc1C#N` [Compound 249], the EC50 is 0.5 to 5 nM. In the case of `CC(C)Oc1ccc(-c2nnc(-c3cccc4c3CCC[C@H]4NC(=O)CN)s2)cc1C#N` [Compound 250], the EC50 fell in the range of 0.5 to 5 nM.

On to `CNCC(=O)N[C@@H]1CCCc2c(-c3nnc(-c4ccc(OC(C)C)c(C#N)c4)s3)cccc21` [Compound 251], for which the EC50 lay within 0.5 to 5 nM. `CNCC(=O)N[C@H]1CCCc2c(-c3nnc(-c4ccc(OC(C)C)c(C#N)c4)s3)cccc21` [Compound 252]: the EC50 was 0.05 to 0.5 nM. For the compound `CC(C)Oc1ccc(-c2nnc(-c3cccc4c3CCC[C@@H]4NC(=O)CCN)s2)cc1C#N` [Compound 253], the EC50 lay in the range of 0.5 to 5 nM. Turning to `CC(C)Oc1ccc(-c2nnc(-c3cccc4c3CCC[C@@H]4NC(=O)CCNS(C)(=O)=O)s2)cc1C#N` [Compound 254], the EC50 fell in the range of 0.5 to 5 nM. With `CC(C)Oc1ccc(-c2nnc(-c3cccc4c3CCC[C@@H]4NC(=O)CCO)s2)cc1C#N` [Compound 255] the figure was 0.05 to 0.5 nM; with `CC(C)Oc1ccc(-c2nnc(-c3cccc4c3CCC[C@@H]4NC(=O)CCN(C)C)s2)cc1C#N` [Compound 256, (S)—N-(5-(5-(3-cyano-4-isopropoxyphenyl)-1,3,4-thiadiazol-2-yl)-1,2,3,4-tetrahydronaphthalen-1-yl)-3-(dimethylamino)propanamide], 0.5 to 5 nM. With `CC(C)Oc1ccc(-c2nnc(-c3cccc4c3CCC[C@H]4NC(=O)CCN(C)C)s2)cc1C#N` [Compound 257, (R)—N-(5-(5-(3-cyano-4-isopropoxyphenyl)-1,3,4-thiadiazol-2-yl)-1,2,3,4-tetrahydronaphthalen-1-yl)-3-(dimethylamino)propanamide] the figure was over 5 nM. Regarding `CC(C)Oc1ccc(-c2nnc(-c3cccc4c3CCC[C@H]4NC(=O)CCNS(C)(=O)=O)s2)cc1C#N` [Compound 258], the EC50 was in the range of 0.5 to 5 nM.

`CC(C)Oc1ccc(-c2nnc(-c3cccc4c3CCC[C@H]4NC(=O)CCO)s2)cc1C#N` [Compound 259]: the EC50 lay in the range of 0.05 to 0.5 nM. Take `CNCCC(=O)N[C@@H]1CCCc2c(-c3nnc(-c4ccc(OC(C)C)c(C#N)c4)s3)cccc21` [Compound 260]: the EC50 lay within 0.5 to 5 nM. For `CC(C)Oc1ccc(-c2nnc(-c3cccc4c3CCC[C@H]4NCc3c[nH]cn3)s2)cc1C#N` [Compound 261] the value was over 5 nM; for `CC(C)Oc1ccc(-c2nnc(-c3cccc4c3CCC[C@H]4NCc3ccncc3)s2)cc1C#N` [Compound 262], 0.5 to 5 nM. For `CC(C)Oc1ccc(-c2nnc(-c3cccc4c3CCC[C@H]4NCc3cccnc3)s2)cc1C#N` [Compound 263, (R)-2-isopropoxy-5-(5-(5-((pyridin-3-ylmethyl)amino)-5,6,7,8-tetrahydronaphthalen-1-yl)-1,3,4-thiadiazol-2-yl)benzonitrile], the EC50 fell in the range of 0.5 to 5 nM. With `CC(C)Oc1ccc(-c2nnc(-c3cccc4c3CCC[C@H]4NCc3ccccn3)s2)cc1C#N` [Compound 264], the EC50 is 0.5 to 5 nM. For the compound `CC(C)Oc1ccc(-c2nnc(-c3cccc4c3CCC[C@H]4NCc3ncc[nH]3)s2)cc1C#N` [Compound 265], the EC50 fell in the range of 0.5 to 5 nM. For `CC(C)Oc1ccc(-c2nnc(-c3cccc4c3CCC[C@@H]4NCc3ncc[nH]3)s2)cc1C#N` [Compound 266], the EC50 fell in the range of 0.05 to 0.5 nM. `CC(C)Oc1ccc(-c2nnc(-c3cccc4c3CCC[C@@H]4NCc3cnc[nH]3)s2)cc1C#N` [Compound 267]: the EC50 fell in the range of 0.5 to 5 nM.

As for `CC(C)Oc1ccc(-c2nnc(-c3cccc4c3CCC[C@@H]4NCc3ncco3)s2)cc1C#N` [Compound 268], the EC50 was 0.5 to 5 nM. In the case of `CC(C)Oc1ccc(-c2nnc(-c3cccc4c3CCC[C@@H]4NCc3cnco3)s2)cc1C#N` [Compound 269], the EC50 fell in the range of 0.5 to 5 nM. Take `CC(C)Oc1ccc(-c2nnc(-c3cccc4c3CCC[C@@H]4NCc3ccncc3)s2)cc1C#N` [Compound 270]: the EC50 was 0.5 to 5 nM. Regarding `CC(C)Oc1ccc(-c2nnc(-c3cccc4c3CCC[C@@H]4NCc3cccnc3)s2)cc1C#N` [Compound 271, (S)-2-isopropoxy-5-(5-(5-((pyridin-3-ylmethyl)amino)-5,6,7,8-tetrahydronaphthalen-1-yl)-1,3,4-thiadiazol-2-yl)benzonitrile], the EC50 was in the range of 0.5 to 5 nM. With `CC(C)Oc1ccc(-c2nnc(-c3cccc4c3CCC[C@@H]4NCc3ccccn3)s2)cc1C#N` [Compound 272], the EC50 fell in the range of 0.5 to 5 nM. Take `CC(C)Oc1ccc(-c2nnc(-c3cccc4c3CCC[C@H]4NCc3cnco3)s2)cc1C#N` [Compound 273]: the EC50 was in the range of 0.5 to 5 nM.

In the case of `CC(C)Oc1ccc(-c2nnc(-c3cccc4c3CCC[C@H]4NCCN(C)C)s2)cc1C#N` [Compound 274, (R)-5-(5-(5-((2-(dimethylamino)ethyl)amino)-5,6,7,8-tetrahydronaphthalen-1-yl)-1,3,4-thiadiazol-2-yl)-2-isopropoxybenzonitrile], the EC50 is 0.5 to 5 nM.

Turning to `CC(C)Oc1ccc(-c2nnc(-c3cccc4c3CCC[C@H]4NS(N)(=O)=O)s2)cc1C#N` [Compound 275, (R)—N-(5-(5-(3-cyano-4-isopropoxyphenyl)-1,3,4-thiadiazol-2-yl)-1,2,3,4-tetrahydronaphthalen-1-yl) sulfamide], the EC50 is 0.05 to 0.5 nM. On to `CC(C)Oc1ccc(-c2nnc(-c3cccc4c3CCC[C@@H]4NS(N)(=O)=O)s2)cc1C#N` [Compound 276, (S)—N-(5-(5-(3-cyano-4-isopropoxyphenyl)-1,3,4-thiadiazol-2-yl)-1,2,3,4-tetrahydronaphthalen-1-yl)sulfamide], for which the EC50 was in the range of 0.05 to 0.5 nM.

These data come from patent publication US9481659B2, “Selective heterocyclic sphingosine 1 phosphate receptor modulators” (Celgene International II SÀRL, priority 2011, dated 2016).
